In patent publication US9181234B2, “Antibacterial compounds” (priority 2010, dated 2015):
Converted amounts (≈) assume the structure as drawn.

Key:
[1] = system: Staphylococcus aureus (Isolate ID ATCC 29213); assay: Antibacterial activity, MIC, S. aureus; format: cell-based; conditions: Staphylococcus aureus, ATCC29213, Gram positive strain; broth microdilution or agar dilution
Method in brief: (§1)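 Broth microdilution or agar dilution per CLSI M7-A7; MIC read as susceptibility endpoint in liquid or solid medium.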

[2] = system: Streptococcus pyogenes (Isolate ID ATCC 51339); assay: Antibacterial activity, MIC, S. pyogenes; format: cell-based; conditions: Streptococcus pyogenes, ATCC51339, Gram positive strain; broth microdilution or agar dilution
Method in brief: as §1

physchem = conditions: kinetic from dmso stock
Method in brief: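 DMSO doubling dilutions were diluted twenty-fold into 100 mM citrate (pH 4), PBS (pH 7.4) or carbonate-bicarbonate (pH 9). After 24 h equilibration at room temperature, absorbance was read at 620 nm. The reported value is the highest concentration without measurable precipitate.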

[3] = system: Haemophilus influenzae (Isolate ID ATCC 49247); assay: Antibacterial activity, MIC, H. influenzae; format: cell-based; conditions: Haemophilus influenzae, ATCC49247; Gram negative strain; broth microdilution or agar dilution
Method in brief: as §1

[4] = system: Enterococcus faecalis (Isolate ID ATCC 29212); assay: Antibacterial activity, MIC, E. faecalis; format: cell-based; conditions: Enterococcus faecalis, ATCC29212; Gram positive strain; broth microdilution or agar dilution
Method in brief: as §1

[5] = pH 7.4, aqueous buffer, Max Solubility
[6] = pH 7.4, aqueous buffer, Solubility (pH 7.4)
[7] = pH 7.4, aqueous buffer, Solubility Range
[8] = pH 7.4, aqueous buffer, Solubility Range (maximum solubility)
[9] = pH 9, aqueous buffer, Max Solubility
[10] = pH 9, aqueous buffer, Solubility Range (maximum solubility)

SMILES	MIC [1]	MIC [2]	solubility at 24 h (physchem; [5])	solubility at 24 h (physchem; [6])	solubility at 24 h (physchem; [7])	solubility at 24 h (physchem; [8])	MIC [3]	MIC [4]	solubility at 24 h (physchem; [9])	solubility at 24 h (physchem; [10])
CCNC(=O)Nc1nc2cc(-c3cnc(N4CCC(CC(F)(F)F)(C(=O)O)CC4)nc3)cc(-c3ccccn3)c2s1 [Compound 140]	0.25 to 1 µg/mL (≈ 0.427 to 1.71 µM)	≤ 0.25 µg/mL	≥ 800 µg/mL	≥ 800 µg/mL	> 800 µg/mL	> 800 µg/mL	1 to 16 µg/mL (≈ 1.71 to 27.3 µM)	≤ 0.25 µg/mL		
CCNC(=O)Nc1nc2cc(-c3cnc(N4CCC(C(=O)O)(C(F)(F)F)CC4)nc3)cc(-c3ccccn3)c2s1 [Compound 142, 1-[5-[2-(ethylcarbamoylamino)-7-(2-pyridyl)-1,3-benzothiazol-5-yl]pyrimidin-2-yl]-4-(trifluoromethyl)piperidine-4-carboxylic acid]	1 to 16 µg/mL (≈ 1.75 to 28 µM)	≤ 0.25 µg/mL	≥ 800 µg/mL	≥ 800 µg/mL	> 800 µg/mL	> 800 µg/mL	1 to 16 µg/mL (≈ 1.75 to 28 µM)	≤ 0.25 µg/mL		
CCNC(=O)Nc1nc2cc(-c3cnc(N4CCC(C)(C(=O)O)CC4)nc3)cc(C#Cc3cncn3C)c2s1 [Compound 144, 1-[5-[2-(ethylcarbamoylamino)-7-[2-(3-methylimidazol-4-yl)ethynyl]-1,3-benzothiazol-5-yl]pyrimidin-2-yl]-4-methyl-piperidine-4-carboxylic acid]	0.25 to 1 µg/mL (≈ 0.459 to 1.84 µM)	≤ 0.25 µg/mL		400 µg/mL (≈ 734 µM)	400 to 800 µg/mL (≈ 734 to 1470 µM)		0.25 to 1 µg/mL (≈ 0.459 to 1.84 µM)	≤ 0.25 µg/mL		
CCNC(=O)Nc1nc2cc(-c3cnc(N4CCC(C)(C(=O)O)CC4)nc3)cc(C(=O)Nc3nccs3)c2s1 [Compound 145, 1-[5-[2-(ethylcarbamoylamino)-7-(thiazol-2-ylcarbamoyl)-1,3-benzothiazol-5-yl]pyrimidin-2-yl]-4-methyl-piperidine-4-carboxylic acid]	> 16 µg/mL	1 to 16 µg/mL (≈ 1.76 to 28.2 µM)		≥ 800 µg/mL	> 800 µg/mL		> 16 µg/mL	0.25 to 1 µg/mL (≈ 0.441 to 1.76 µM)		
CCNC(=O)Nc1nc2cc(-c3cnc(N4CCC(C)(C(=O)O)CC4)nc3)cc(NC(=O)c3ncccn3)c2s1 [Compound 146, 1-[5-[2-(ethylcarbamoylamino)-7-(pyrimidine-2-carbonylamino)-1,3-benzothiazol-5-yl]pyrimidin-2-yl]-4-methyl-piperidine-4-carboxylic acid]	> 16 µg/mL	> 16 µg/mL		50 µg/mL (≈ 89 µM)	12.5 to 400 µg/mL (≈ 22.3 to 712 µM)		> 16 µg/mL	> 16 µg/mL		
CCNC(=O)Nc1nc2cc(-c3cnc(N4CCC(C)(C(=O)O)CC4)nc3)cc(CN(C)c3ncccn3)c2s1 [Compound 147, 1-[5-[2-(ethylcarbamoylamino)-7-[[methyl(pyrimidin-2-yl)amino]methyl]-1,3-benzothiazol-5-yl]pyrimidin-2-yl]-4-methyl-piperidine-4-carboxylic acid]	1 to 16 µg/mL (≈ 1.78 to 28.5 µM)	0.25 to 1 µg/mL (≈ 0.445 to 1.78 µM)		≥ 800 µg/mL	> 800 µg/mL		1 to 16 µg/mL (≈ 1.78 to 28.5 µM)	≤ 0.25 µg/mL		
CCNC(=O)Nc1nc2cc(-c3cnc(N4CCC(C)(C(=O)O)CC4)nc3)cc(C#Cc3cccnc3)c2s1 [Compound 148]	≤ 0.25 µg/mL	≤ 0.25 µg/mL	≥ 800 µg/mL	≥ 800 µg/mL	> 800 µg/mL	> 800 µg/mL	0.25 to 1 µg/mL (≈ 0.462 to 1.85 µM)	≤ 0.25 µg/mL		
CCNC(=O)Nc1nc2cc(-c3cnc(N4CCC(C)(C(=O)O)CC4)nc3)cc(NC(=O)c3ccccn3)c2s1 [Compound 149, 1-(5-(2-(3-ethylureido)-7-(picolinamido)benzo[d]thiazol-5-yl)pyrimidin-2-yl)-4-methylpiperidine-4-carboxylic acid]	1 to 16 µg/mL (≈ 1.78 to 28.5 µM)	0.25 to 1 µg/mL (≈ 0.446 to 1.78 µM)	≥ 800 µg/mL	≥ 800 µg/mL	> 800 µg/mL	> 800 µg/mL	1 to 16 µg/mL (≈ 1.78 to 28.5 µM)	≤ 0.25 µg/mL		
CCNC(=O)Nc1nc2cc(-c3cnc(N4CCC(C)(C(=O)O)CC4)nc3)cc(C#CC3CCCC3)c2s1 [Compound 150]	0.25 to 1 µg/mL (≈ 0.469 to 1.88 µM)	> 16 µg/mL	≥ 800 µg/mL	≥ 800 µg/mL	> 800 µg/mL	> 800 µg/mL	> 16 µg/mL	≤ 0.25 µg/mL		
CCNC(=O)Nc1nc2cc(-c3cnc(N4CCC(C)(C(=O)O)CC4)nc3)cc(C#Cc3ccncc3)c2s1 [Compound 151]	0.25 to 1 µg/mL (≈ 0.462 to 1.85 µM)	0.25 to 1 µg/mL (≈ 0.462 to 1.85 µM)		400 µg/mL (≈ 739 µM)	400 to 800 µg/mL (≈ 739 to 1480 µM)		1 to 16 µg/mL (≈ 1.85 to 29.5 µM)	≤ 0.25 µg/mL	≥ 800 µg/mL	> 800 µg/mL
CCNC(=O)Nc1nc2cc(-c3cnc(N4CCC(C)(C(=O)O)CC4)nc3)cc(C#Cc3cccc(OC)n3)c2s1 [Compound 152, 1-[5-[2-(ethylcarbamoylamino)-7-[2-(6-methoxy-2-pyridyl)ethynyl]-1,3-benzothiazol-5-yl]pyrimidin-2-yl]-4-methyl-piperidine-4-carboxylic acid]	≤ 0.25 µg/mL	≤ 0.25 µg/mL		100 µg/mL (≈ 175 µM)	12.5 to 400 µg/mL (≈ 21.9 to 700 µM)		1 to 16 µg/mL (≈ 1.75 to 28 µM)	≤ 0.25 µg/mL	≥ 800 µg/mL	> 800 µg/mL
CCNC(=O)Nc1nc2cc(-c3cnc(N4CCC(C)(C(=O)O)CC4)nc3)cc(C#Cc3nnc(C)s3)c2s1 [Compound 153]	0.25 to 1 µg/mL (≈ 0.444 to 1.78 µM)	0.25 to 1 µg/mL (≈ 0.444 to 1.78 µM)		100 µg/mL (≈ 178 µM)	12.5 to 400 µg/mL (≈ 22.2 to 711 µM)		1 to 16 µg/mL (≈ 1.78 to 28.4 µM)	≤ 0.25 µg/mL	400 µg/mL (≈ 711 µM)	400 to 800 µg/mL (≈ 711 to 1420 µM)
CCNC(=O)Nc1nc2cc(-c3cnc(N4CCC(C)(C(=O)O)CC4)nc3)cc(C#Cc3ncccn3)c2s1 [Compound 154]	1 to 16 µg/mL (≈ 1.84 to 29.5 µM)	0.25 to 1 µg/mL (≈ 0.461 to 1.84 µM)		200 µg/mL (≈ 369 µM)	12.5 to 400 µg/mL (≈ 23 to 737 µM)		1 to 16 µg/mL (≈ 1.84 to 29.5 µM)	≤ 0.25 µg/mL	400 µg/mL (≈ 737 µM)	400 to 800 µg/mL (≈ 737 to 1470 µM)
CCNC(=O)Nc1nc2cc(-c3cnc(N4CCC(C)(C(=O)O)CC4)nc3)cc(C#Cc3ccncn3)c2s1 [Compound 155]	1 to 16 µg/mL (≈ 1.84 to 29.5 µM)	0.25 to 1 µg/mL (≈ 0.461 to 1.84 µM)		400 µg/mL (≈ 737 µM)	400 to 800 µg/mL (≈ 737 to 1470 µM)		1 to 16 µg/mL (≈ 1.84 to 29.5 µM)	≤ 0.25 µg/mL	≥ 800 µg/mL	> 800 µg/mL
CCNC(=O)Nc1nc2cc(-c3cnc(N4CCC(C)(C(=O)O)CC4)nc3)cc(C#Cc3nccs3)c2s1 [Compound 156]	≤ 0.25 µg/mL	≤ 0.25 µg/mL	≥ 800 µg/mL	≥ 800 µg/mL	> 800 µg/mL	> 800 µg/mL	1 to 16 µg/mL (≈ 1.83 to 29.2 µM)	≤ 0.25 µg/mL		
CCNC(=O)Nc1nc2cc(-c3cnc(N4CCC(C)(C(=O)O)CC4)nc3)cc(C#Cc3cnccn3)c2s1 [Compound 157]	≤ 0.25 µg/mL	≤ 0.25 µg/mL	≥ 800 µg/mL	≥ 800 µg/mL	> 800 µg/mL	> 800 µg/mL	0.25 to 1 µg/mL (≈ 0.461 to 1.84 µM)	≤ 0.25 µg/mL		
CCNC(=O)Nc1nc2cc(-c3cnc(CN4CCC(C)(C(=O)O)CC4)nc3)cc(-c3ccccn3)c2s1 [Compound 160]	1 to 16 µg/mL (≈ 1.88 to 30.1 µM)	1 to 16 µg/mL (≈ 1.88 to 30.1 µM)	≥ 800 µg/mL	≥ 800 µg/mL	> 800 µg/mL	> 800 µg/mL	1 to 16 µg/mL (≈ 1.88 to 30.1 µM)	1 to 16 µg/mL (≈ 1.88 to 30.1 µM)		
CCNC(=O)Nc1nc2cc(-c3cnc(N4CCCC4(C)C(=O)O)nc3)cc(-c3ccccn3)c2s1 (stereo not shown) [Compound 163]	0.25 to 1 µg/mL (≈ 0.496 to 1.99 µM)	≤ 0.25 µg/mL	≥ 800 µg/mL	≥ 800 µg/mL	> 800 µg/mL	> 800 µg/mL	0.25 to 1 µg/mL (≈ 0.496 to 1.99 µM)	≤ 0.25 µg/mL		
